Measured values from PMC8287907 (Nucleic Acids Research, 2021).
“Also recorded” adds a separate entry of the source.

Target: SUD-NM / TRF2 G4 interaction (Severe acute respiratory syndrome coronavirus 2, UniProt P0DTD1)
Format: binding, SARS-CoV-2
Conditions: His-SUD-NM 10 nM, biotinylated TRF2 G4 50 nM, TMP 100 to 500 nM

Compound: Cc1cc2cc3c(C)cc(=O)oc3c(C)c2o1 [TMP, trimethyl psoralen]
- Inhibition of the SUD/G4 interaction (in words): No inhibition; also recorded: does not inhibit
